Key:
[1] = target: Somatostatin receptor type 5 (Homo sapiens, UniProt P35346)
[2] = target: Somatostatin receptor type 3 (Homo sapiens, UniProt P32745)
[3] = target: Somatostatin receptor type 2 (Homo sapiens, UniProt P30874)
[4] = target: Somatostatin receptor type 4 (Homo sapiens, UniProt P31391)
[5] = target: Somatostatin receptor type 1 (Homo sapiens, UniProt P30872)
Somatostatin receptor type 1, sequence (P30872 whole entry): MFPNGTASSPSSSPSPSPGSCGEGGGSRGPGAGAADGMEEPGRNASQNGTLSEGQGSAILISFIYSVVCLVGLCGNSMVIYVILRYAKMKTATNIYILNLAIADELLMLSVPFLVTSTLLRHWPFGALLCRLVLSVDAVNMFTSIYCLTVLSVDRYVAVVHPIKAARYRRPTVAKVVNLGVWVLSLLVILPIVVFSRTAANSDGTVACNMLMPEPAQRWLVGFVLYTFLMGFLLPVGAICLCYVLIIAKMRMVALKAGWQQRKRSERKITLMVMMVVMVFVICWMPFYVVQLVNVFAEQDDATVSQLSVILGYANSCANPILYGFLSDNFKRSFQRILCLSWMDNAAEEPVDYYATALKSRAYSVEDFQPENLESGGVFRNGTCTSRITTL

Somatostatin receptor type 3, sequence (P32745 whole entry): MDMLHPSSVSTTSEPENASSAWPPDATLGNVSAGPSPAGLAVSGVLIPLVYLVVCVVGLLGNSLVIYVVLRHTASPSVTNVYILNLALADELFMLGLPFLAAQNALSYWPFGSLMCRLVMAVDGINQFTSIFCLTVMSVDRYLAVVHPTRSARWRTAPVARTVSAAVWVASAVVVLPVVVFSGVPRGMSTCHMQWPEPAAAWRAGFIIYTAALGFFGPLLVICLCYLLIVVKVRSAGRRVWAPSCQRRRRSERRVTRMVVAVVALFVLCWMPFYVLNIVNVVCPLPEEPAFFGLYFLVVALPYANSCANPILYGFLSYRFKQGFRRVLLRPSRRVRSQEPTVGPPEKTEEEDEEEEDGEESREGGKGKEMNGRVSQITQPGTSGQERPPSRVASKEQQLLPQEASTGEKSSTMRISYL
Somatostatin receptor type 5, sequence (P35346 whole entry): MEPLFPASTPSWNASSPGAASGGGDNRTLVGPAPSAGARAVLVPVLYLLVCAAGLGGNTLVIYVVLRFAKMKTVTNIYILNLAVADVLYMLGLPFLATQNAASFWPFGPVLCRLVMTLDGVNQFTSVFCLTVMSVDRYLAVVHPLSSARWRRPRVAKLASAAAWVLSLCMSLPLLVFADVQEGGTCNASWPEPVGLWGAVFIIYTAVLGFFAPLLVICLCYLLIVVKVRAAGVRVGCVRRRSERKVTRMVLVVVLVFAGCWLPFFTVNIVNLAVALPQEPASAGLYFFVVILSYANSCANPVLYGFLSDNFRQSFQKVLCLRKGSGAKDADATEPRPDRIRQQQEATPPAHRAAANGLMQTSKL
Somatostatin receptor type 2, sequence (P30874 whole entry): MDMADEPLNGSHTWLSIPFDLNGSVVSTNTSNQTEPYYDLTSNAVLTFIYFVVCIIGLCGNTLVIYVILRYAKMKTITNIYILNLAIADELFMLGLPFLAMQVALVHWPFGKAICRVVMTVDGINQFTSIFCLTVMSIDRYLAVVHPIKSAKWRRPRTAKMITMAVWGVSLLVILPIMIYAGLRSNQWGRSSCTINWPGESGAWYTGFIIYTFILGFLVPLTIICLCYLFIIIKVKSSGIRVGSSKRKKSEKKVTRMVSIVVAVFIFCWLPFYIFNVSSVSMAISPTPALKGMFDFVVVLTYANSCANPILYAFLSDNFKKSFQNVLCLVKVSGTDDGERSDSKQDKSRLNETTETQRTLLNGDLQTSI
Somatostatin receptor type 4, sequence (P31391 whole entry): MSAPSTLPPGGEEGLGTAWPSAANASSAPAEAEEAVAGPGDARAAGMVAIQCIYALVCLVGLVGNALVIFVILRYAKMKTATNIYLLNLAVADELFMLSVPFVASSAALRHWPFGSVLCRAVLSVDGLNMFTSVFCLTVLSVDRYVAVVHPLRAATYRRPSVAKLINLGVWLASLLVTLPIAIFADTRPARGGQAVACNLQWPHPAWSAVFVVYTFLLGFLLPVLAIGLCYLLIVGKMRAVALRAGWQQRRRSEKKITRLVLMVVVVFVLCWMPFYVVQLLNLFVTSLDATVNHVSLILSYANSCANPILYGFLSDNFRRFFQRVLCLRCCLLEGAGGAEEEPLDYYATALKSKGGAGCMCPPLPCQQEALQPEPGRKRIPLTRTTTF

C[C@@H](c1c[nH]c2ccccc12)[C@@H](NC(=O)N1CCC(n2c(=O)[nH]c3ccccc32)CC1)C(=O)NC(CCCCN)C(=O)OC(C)(C)C (stereo partly drawn) [2-[[(2R,3S)-2-[[4-[(2-Oxo-2,3-dihydro-1H-benzimidazole)-1-yl]piperidino]carbonylamino]-3-(1H-indole-3-yl)butyryl]amino]-6-aminohexanoic acid tert-butyl ester] was tested. Which Ki [1] did it give?
The Ki was 163 nM.

And the Ki [2]?
The Ki was 31 nM.

What about the Ki [3] of the same compound?
Its Ki is 0.01 nM.

What about the Ki [4] of the same compound?
Its Ki is 81 nM.

Which results are given for CC(C)[C@@H]1NC(=O)[C@H](CCCCN)NC(=O)[C@@H](Cc2c[nH]c3ccccc23)NC(=O)[C@H](Cc2ccc(O)cc2)NC(=O)[C@H](C)N(C)C(=O)[C@H](Cc2ccccc2)NC1=O [CAS_3086456]?
Ki [1]: 232 nM; Ki [5]: > 10000 nM; Ki [2]: 230 nM

Which results are given for CC(O)[C@H]1NC(=O)[C@@H](Cc2ccccc2)NC(=O)[C@H]2CCCN2C(=O)[C@H](Cc2ccc(O)cc2)NC(=O)[C@@H](Cc2c[nH]c3ccccc23)NC(=O)[C@@H](CCCCN)NC1=O (stereo partly drawn) [(5S,8R,11R,14R,17R,19aR)-11-(4-Amino-butyl)-17-benzyl-5-(4-hydroxy-benzyl)-14-(1-hydroxy-ethyl)-8-(1H-indol-3-ylmethyl)-tetradecahydro-3a,6,9,12,15,18-hexaaza-cyclopentacyclooctadecene-4,7,10,13,16,19-hexaone]?
Ki [1]: 2010 nM; Ki [5]: 5660 nM; Ki [2]: 3070 nM; Ki [3]: 0.49 nM; Ki [4]: > 10000 nM

Reference: BindingDB's records for doi:10.1073/pnas.95.18.10836 (Merck Research Laboratories, 1998)
